In patent US12398154B2, “Azaquinazoline pan-KRas inhibitors” (Mirati Therapeutics, Inc., priority 2020, dated 2025) one finds IC50 data, which are given here for twelve compounds.

Where only a bound is given, the exact number is not on record here.

The target of one assay is T1, KRas G13D (Homo sapiens, UniProt P01116, G13D).
T1 construct: Biotinylated KRas (corresponding to amino acids 1-169, produced at Accelegan Inc.); biotin (biotinylated); purchased Accelegan Inc
The assay is described as follows: KRas binding assay (TR-FRET displacement).

Another assay addresses T2, KRas Q61H (Homo sapiens, UniProt P01116, Q61H).
T2 construct: Biotinylated KRas (corresponding to amino acids 1-169, produced at Accelegan Inc.); biotin (biotinylated); purchased Accelegan Inc
The assay is described as follows: KRas binding assay (TR-FRET displacement).

A further assay has as its target KRas G12D (Homo sapiens, UniProt P01116, G12D). The assay is described as follows: biochemical.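 Note: TR-FRET displacement binding assay on KRas, read after a one-hour incubation at room temperature, IC50 fitted from percent-of-control values.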
Another assay concerns the target KRas G12V (Homo sapiens, UniProt P01116, G12V). The assay is described as follows: biochemical.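 Note: KRas binding measured by TR-FRET displacement at room temperature, IC50 fitted from percent of control values.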
Another assay has as its target KRas G12R (Homo sapiens, UniProt P01116, G12R). The assay is described as follows: biochemical.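 Note: TR-FRET displacement assay of compound binding to KRas, read after one hour at room temperature, potency from a four-parameter fit of percent-of-control values.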
In the next assay the target is KRas G12A (Homo sapiens, UniProt P01116, G12A). The assay is described as follows: biochemical.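 Note: binding to KRas measured by TR-FRET displacement after one hour at room temperature, IC50 from a four-parameter fit of percent-of-control values.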
KRas G12A, sequence (P01116 1-169 isoform P01116-2 G12A): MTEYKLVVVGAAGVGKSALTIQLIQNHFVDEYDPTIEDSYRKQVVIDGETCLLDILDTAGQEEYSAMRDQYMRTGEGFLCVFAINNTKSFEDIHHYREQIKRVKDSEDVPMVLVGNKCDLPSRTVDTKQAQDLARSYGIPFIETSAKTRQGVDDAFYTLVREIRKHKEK
Another assay deals with KRas G12S (Homo sapiens, UniProt P01116, G12S). The assay is described as follows: biochemical.
KRas G12S, sequence (P01116 1-169 isoform P01116-2 G12S): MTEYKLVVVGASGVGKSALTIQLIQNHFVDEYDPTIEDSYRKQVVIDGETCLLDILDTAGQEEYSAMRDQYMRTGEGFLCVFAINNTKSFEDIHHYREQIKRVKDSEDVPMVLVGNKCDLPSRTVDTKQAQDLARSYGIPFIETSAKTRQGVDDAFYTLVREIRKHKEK
The target in a further assay is KRas G12C (Homo sapiens, UniProt P01116, G12C). The assay is described as follows: biochemical.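 Note: binding to KRas assessed by TR-FRET displacement after one hour incubation at room temperature, potency fitted from percent-of-control values.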
KRas G12C, sequence (P01116 1-169 isoform P01116-2 G12C): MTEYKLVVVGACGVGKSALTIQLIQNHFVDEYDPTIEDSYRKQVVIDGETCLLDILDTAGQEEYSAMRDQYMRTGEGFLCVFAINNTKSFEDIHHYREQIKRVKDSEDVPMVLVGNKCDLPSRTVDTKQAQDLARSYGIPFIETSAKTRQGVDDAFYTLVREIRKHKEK
For the next assay, the target named is KRas WT (Homo sapiens, UniProt P01116). The assay is described as follows: biochemical.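 Note: binding to KRas read as TR-FRET displacement after a one-hour room-temperature incubation, IC50 derived from percent-of-control values.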
KRas WT, sequence (P01116 1-169 isoform P01116-2): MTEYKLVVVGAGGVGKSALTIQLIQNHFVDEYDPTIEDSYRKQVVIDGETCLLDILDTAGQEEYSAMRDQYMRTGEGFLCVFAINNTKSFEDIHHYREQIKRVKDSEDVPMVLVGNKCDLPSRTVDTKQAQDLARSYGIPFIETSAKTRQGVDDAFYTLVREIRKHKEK
A further assay relates to pERK in MKN1 cells. The assay is described as follows: Inhibition of KRas phosphorylation of ERK (Cisbio HTRF pERK assay). The note with it: Homo sapiens, MKN-1, 3 h, read-out: Inhibition (HTRF IC50) of KRas-mediated Phosphorylation of ERK, MKN1.
Another assay concerns pERK in PSN1 cells. Described as above. The note with it: Homo sapiens, PSN1, 3 h, read-out: Inhibition (HTRF IC50) of KRas-mediated Phosphorylation of ERK, PSN1.
For a further assay, the system named is pERK in ASPC1 cells. Described as above. The note with it: Homo sapiens, ASPC1, read-out: Inhibition (HTRF IC50) of KRas-mediated Phosphorylation of ERK, AsPC-1.
The subject of another assay is pERK in H727 cells. The assay is described as above. The settings on record: Homo sapiens, NCI-H727, read-out: Inhibition (HTRF IC50) of KRas-mediated Phosphorylation of ERK, H727.
A further assay has as its system pERK in HCT116 cells. The assay is described as above. The settings on record: Homo sapiens, HCT-116, read-out: Inhibition (HTRF IC50) of KRas-mediated Phosphorylation of ERK, HCT116.

KRas G12V, sequence (P01116 1-169 isoform P01116-2 G12V): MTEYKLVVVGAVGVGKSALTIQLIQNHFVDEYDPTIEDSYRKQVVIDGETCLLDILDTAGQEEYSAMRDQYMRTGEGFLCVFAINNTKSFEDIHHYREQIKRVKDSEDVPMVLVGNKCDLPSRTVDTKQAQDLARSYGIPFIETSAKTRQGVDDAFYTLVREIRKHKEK
T2 sequence (P01116 1-169 isoform P01116-2 Q61H): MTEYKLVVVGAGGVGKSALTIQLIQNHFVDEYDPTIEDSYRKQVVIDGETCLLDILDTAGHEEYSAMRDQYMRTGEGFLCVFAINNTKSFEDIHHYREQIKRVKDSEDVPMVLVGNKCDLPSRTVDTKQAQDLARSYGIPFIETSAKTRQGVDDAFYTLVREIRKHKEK
KRas G12R, sequence (P01116 1-169 isoform P01116-2 G12R): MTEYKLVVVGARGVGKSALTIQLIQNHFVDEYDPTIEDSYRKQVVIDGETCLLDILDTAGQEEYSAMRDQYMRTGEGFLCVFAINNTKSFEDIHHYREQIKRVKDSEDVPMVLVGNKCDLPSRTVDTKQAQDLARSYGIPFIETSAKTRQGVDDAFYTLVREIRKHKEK
T1 sequence (P01116 1-169 isoform P01116-2 G13D): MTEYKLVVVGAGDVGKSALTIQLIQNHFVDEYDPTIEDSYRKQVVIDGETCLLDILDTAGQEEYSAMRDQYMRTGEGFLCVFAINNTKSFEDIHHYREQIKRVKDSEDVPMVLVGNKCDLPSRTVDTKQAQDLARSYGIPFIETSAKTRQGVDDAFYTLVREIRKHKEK
KRas G12D, sequence (P01116 1-169 isoform P01116-2 G12D): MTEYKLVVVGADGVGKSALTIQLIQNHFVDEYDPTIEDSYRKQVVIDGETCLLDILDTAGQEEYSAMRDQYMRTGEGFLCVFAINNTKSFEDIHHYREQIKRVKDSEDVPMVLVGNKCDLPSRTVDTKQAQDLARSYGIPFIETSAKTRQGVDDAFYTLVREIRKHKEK

As to `CCc1c(F)ccc2cc(O)cc(-c3ncc4c(N5CCCCC5)nc(OC[C@@H]5C[C@@H](O)CN5C)nc4c3F)c12` [Example 6], the IC50 came to 21 nM at KRas G13D; 23 nM on KRas Q61H; 29 nM on KRas G12D; 19 nM at KRas G12V; 14 nM on KRas G12R; 16 nM against KRas G12A. In addition, the IC50 turned out to be 20 nM at KRas G12S, 18 nM on KRas G12C and 22 nM against KRas WT.

Regarding `CC1(O)CCCN(c2nc(OCC34CCCN3CCC4)nc3c(F)c(-c4cccc5cccc(F)c45)ncc23)C1` (stereo not shown) [Example 17, 1-(8-fluoro-7-(8-fluoronaphthalen-1-yl)-2-((hexahydro-1H-pyrrolizin-7a-yl)methoxy)pyrido[4,3-d]pyrimidin-4-yl)-3-methylpiperidin-3-ol], the IC50 on KRas G13D was determined as 925 nM; at KRas Q61H it was 1860 nM; against KRas G12D, 746 nM; against KRas G12V, 1490 nM; at KRas G12R it was 2230 nM; against KRas G12A, 961 nM. Besides, the results for the IC50 against KRas G12S, on KRas G12C and against KRas WT were 921 nM, 1190 nM and 956 nM, respectively.

`Fc1c(-c2cccc3cccc(F)c23)ncc2c(N3C[C@@H]4CC[C@@H](C4)C3)nc(OCC34CCCN3CCC4)nc12` [Example 18, 4-((1R,5S)-3-azabicyclo[3.2.1]octan-3-yl)-8-fluoro-7-(8-fluoronaphthalen-1-yl)-2-((hexahydro-1H-pyrrolizin-7a-yl)methoxy)pyrido[4,3-d]pyrimidine]: the 50% inhibitory concentration (IC50) at KRas G13D amounted to 9370 nM; on KRas Q61H, 13200 nM; against KRas G12D it was 24000 nM; against KRas G12V it was 4450 nM; on KRas G12R, 6780 nM; against KRas G12A, 7540 nM. The values for the 50% inhibitory concentration (IC50) at KRas G12S, against KRas G12C and against KRas WT were 4980 nM, 8790 nM and 6810 nM, respectively.

Turning to `Fc1c(-c2cccc3cccc(F)c23)ncc2c(N3CCCCC3)nc(OCC34CCCN3CCC4)nc12` [Example 21, 8-fluoro-7-(8-fluoronaphthalen-1-yl)-2-((hexahydro-1H-pyrrolizin-7a-yl)methoxy)-4-(piperidin-1-yl)pyrido[4,3-d]pyrimidine], the IC50 on KRas G13D worked out at 12600 nM; at KRas Q61H, 19400 nM; at KRas G12D, 14800 nM; at KRas G12V, 9730 nM; against KRas G12R it was 10700 nM; against KRas G12A it was 12600 nM. Also, the values for the IC50 on KRas G12S, at KRas G12C and against KRas WT were 18800 nM, 12700 nM and 11400 nM, respectively.

Take `O=C1CC(CNc2nc(OCC34CCCN3CCC4)nc3c(F)c(-c4cccc5cccc(F)c45)ncc23)CN1` (stereo not shown) [Example 29, 4-(((8-fluoro-7-(8-fluoronaphthalen-1-yl)-2-((hexahydro-1H-pyrrolizin-7a-yl)methoxy)pyrido[4,3-d]pyrimidin-4-yl)amino)methyl)pyrrolidin-2-one]: the IC50 on KRas G13D was 8190 nM; at KRas Q61H it was 13900 nM; at KRas G12D, 20500 nM; against KRas G12V it was 1960 nM; at KRas G12R, 4380 nM; on KRas G12A, 6200 nM. Besides, the IC50 came out at 3110 nM against KRas G12S, 4320 nM on KRas G12C and 5840 nM against KRas WT.

Consider `Fc1c(-c2cccc3cccc(F)c23)ncc2c(N3CCCC(c4nc[nH]n4)C3)nc(OCC34CCCN3CCC4)nc12` (stereo not shown) [Example 30, 4-(3-(1H-1,2,4-triazol-3-yl)piperidin-1-yl)-8-fluoro-7-(8-fluoronaphthalen-1-yl)-2-((hexahydro-1H-pyrrolizin-7a-yl)methoxy)pyrido[4,3-d]pyrimidine], for which the IC50 turned out to be 2000 nM at KRas G13D; 2900 nM on KRas Q61H; 209 nM against KRas G12D; 800 nM against KRas G12V; 1270 nM on KRas G12R; 1760 nM against KRas G12A. The IC50 against KRas G12S was 1450 nM; against KRas G12C, 1290 nM; on KRas WT, 1740 nM.

`CC1(CNc2nc(OCC34CCCN3CCC4)nc3c(F)c(-c4cccc5cccc(F)c45)ncc23)CNC(=O)C1` (stereo not shown) [Example 35, 4-(((8-fluoro-7-(8-fluoronaphthalen-1-yl)-2-((hexahydro-1H-pyrrolizin-7a-yl)methoxy)pyrido[4,3-d]pyrimidin-4-yl)amino)methyl)-4-methylpyrrolidin-2-one]: the IC50 at KRas G13D worked out at 1660 nM; at KRas Q61H, 4010 nM; at KRas G12D it was 12100 nM; against KRas G12V, 2520 nM; against KRas G12R it was 1610 nM.

Take `O=C1CCC2(CCCN(c3nc(OCC45CCCN4CCC5)nc4c(F)c(-c5cccc6cccc(F)c56)ncc34)C2)C1` (stereo not shown) [Example 46, 7-(8-fluoro-7-(8-fluoronaphthalen-1-yl)-2-((hexahydro-1H-pyrrolizin-7a-yl)methoxy)pyrido[4,3-d]pyrimidin-4-yl)-7-azaspiro[4.5]decan-2-one]: the IC50 at KRas G13D is 8790 nM; on KRas Q61H, 18500 nM; against KRas G12D, 14100 nM; at KRas G12V, 24000 nM; against KRas G12R, 22500 nM.

On to `Fc1c(-c2cccc3cccc(F)c23)ncc2c(N3CCCC4(CCC(F)C4)C3)nc(OCC34CCCN3CCC4)nc12` (stereo not shown) [Example 48, 8-fluoro-4-(2-fluoro-7-azaspiro[4.5]decan-7-yl)-7-(8-fluoronaphthalen-1-yl)-2-((hexahydro-1H-pyrrolizin-7a-yl)methoxy)pyrido[4,3-d]pyrimidine], for which the IC50 on KRas G13D is 16000 nM; at KRas Q61H, 19900 nM; against KRas G12D, 18400 nM; against KRas G12V it was 20400 nM; on KRas G12R it was 24100 nM.

As to `CCc1c(F)ccc2cc(O)cc(-c3ncc4c(NCc5c[nH]c6ncccc56)nc(OC[C@@]56CCCN5C[C@H](F)C6)nc4c3F)c12` [Example 62, 4-(4-(((1H-pyrrolo[2,3-b]pyridin-3-yl)methyl)amino)-8-fluoro-2-(((2R,7aS)-2-fluorohexahydro-1H-pyrrolizin-7a-yl)methoxy)pyrido[4,3-d]pyrimidin-7-yl)-5-ethyl-6-fluoronaphthalen-2-ol], the IC50 on KRas G13D is 3 nM; on KRas Q61H it was at most 2 nM; at KRas G12D it was 3 nM; on KRas G12V it was at most 2 nM; on KRas G12R it was at most 2 nM.

In the case of `CCc1c(F)ccc2cc(O)cc(-c3ncc4c(NCc5n[nH]cc5C)nc(OC[C@@]56CCCN5C[C@H](F)C6)nc4c3F)c12` [Example 161, 5-ethyl-6-fluoro-4-(8-fluoro-2-(((2R,7aS)-2-fluorohexahydro-1H-pyrrolizin-7a-yl)methoxy)-4-(((4-methyl-1H-pyrmzol-3-yl)methyl)amino)pyrido[4,3-d]pyrimidin-7-yl)naphthalen-2-ol], the IC50 on KRas G13D stood at 16 nM; at KRas Q61H, 17 nM; at KRas G12D it was 68 nM; against KRas G12V, 7 nM; against KRas G12R, 9 nM; against KRas G12S it was 15 nM. Besides, the IC50 at KRas G12C was 7 nM; against KRas WT, 20 nM.

For `C#Cc1c(F)ccc2cc(O)cc(-c3ncc4c(N5CC6C(=O)NC(=O)C6C5)nc(OC[C@@]56CCCN5C[C@H](F)C6)nc4c3F)c12` (stereo partly drawn) [Example 389, 5-(7-(8-ethynyl-7-fluoro-3-hydroxynaphthalen-1-yl)-8-fluoro-2-(((2R,7aS)-2-fluorohexahydro-1H-pyrrolizin-7a-yl)methoxy)pyrido[4,3-d]pyrimidin-4-yl)tetrahydropyrrolo[3,4-c]pyrrole-1,3(2H,3aH)-dione], the IC50 was at most 2 nM against KRas G12D; at most 2 nM against KRas G12V; 3 nM on KRas G12R; at most 2 nM against KRas G12A; at most 2 nM at KRas G12S; at most 2 nM at KRas G12C. Also, the IC50 against KRas WT was at most 2 nM; in the assay with pERK in MKN1 cells it was 95 nM; in the assay on pERK in PSN1 cells, at least 10000 nM; with pERK in ASPC1 cells it was 268 nM; in the assay with pERK in H727 cells, 970 nM; with pERK in HCT116 cells, 1090 nM.
